# Test system: Staphylococcus aureus
# Assay: Antibacterial activity against Staphylococcus aureus ATCC 6538P after 18 hrs by broth microdilution method
# Type: functional
smiles,measurement,value
CO[C@@H]1[C@H](O)[C@@H](C)O[C@@H](OC[C@H]2[C@@H]3O[C@@H]3/C=C/C(=O)[C@H](C)CC[C@H](O[C@@H]3O[C@H](C)C[C@H](O)[C@H]3O)[C@@H](C)/C=C/C(=O)O[C@@H]2C)[C@@H]1OC [NEUTRAMYCIN E],MIC,32 µg/mL

# Reference: ChEMBL document CHEMBL1146587, “Purification, structure determination, and antimicrobial activity of neutramycins B-G” (2003)
